Data published in the kinase profiling compilation of Christmann-Franck et al. (2016).

Legend:
Test in all cases: KINOMEscan competition binding
Settings in all cases: compound 10.0 µM
[1] = target: ACVR1B (human) (UniProt P36896)
[2] = target: EPHA1 (human) (UniProt P21709)
[3] = target: MAP3K12 (human) (UniProt Q12852)
[4] = target: ULK3 (human) (UniProt Q6PHR2)
[5] = target: CDK7 (human) (UniProt P50613)
[6] = target: TGFBR1 (human) (UniProt P36897)
[7] = target: PHKG1 (human) (UniProt Q16816)
[8] = target: SRC (human) (UniProt P12931)
[9] = target: PRKX (human) (UniProt P51817)
[10] = target: TLK2 (human) (UniProt Q86UE8)
TLK2 (human), sequence (Q86UE8 whole entry, looked up): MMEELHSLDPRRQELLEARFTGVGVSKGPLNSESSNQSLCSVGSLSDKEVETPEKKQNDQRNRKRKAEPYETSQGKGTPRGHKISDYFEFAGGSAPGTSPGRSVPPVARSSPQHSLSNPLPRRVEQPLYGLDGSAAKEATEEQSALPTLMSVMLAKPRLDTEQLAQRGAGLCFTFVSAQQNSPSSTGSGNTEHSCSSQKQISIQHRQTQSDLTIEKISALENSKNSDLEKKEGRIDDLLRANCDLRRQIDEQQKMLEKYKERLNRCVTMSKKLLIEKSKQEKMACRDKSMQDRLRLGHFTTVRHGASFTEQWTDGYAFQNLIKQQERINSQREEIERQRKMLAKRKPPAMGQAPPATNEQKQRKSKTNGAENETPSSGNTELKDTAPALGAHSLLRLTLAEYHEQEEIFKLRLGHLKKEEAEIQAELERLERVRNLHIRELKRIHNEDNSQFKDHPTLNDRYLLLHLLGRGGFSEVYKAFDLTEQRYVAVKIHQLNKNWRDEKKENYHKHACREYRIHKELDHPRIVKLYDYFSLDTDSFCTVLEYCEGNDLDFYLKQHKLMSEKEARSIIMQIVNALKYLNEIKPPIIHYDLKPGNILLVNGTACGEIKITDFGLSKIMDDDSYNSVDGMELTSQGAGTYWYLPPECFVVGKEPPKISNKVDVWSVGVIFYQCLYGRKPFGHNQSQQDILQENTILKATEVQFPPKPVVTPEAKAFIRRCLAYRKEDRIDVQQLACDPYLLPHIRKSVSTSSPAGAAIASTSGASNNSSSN

[11] = target: TESK1 (human) (UniProt Q15569)
[12] = target: MAP3K4 (human) (UniProt Q9Y6R4)
MAP3K4 (human), sequence (Q9Y6R4 whole entry, looked up): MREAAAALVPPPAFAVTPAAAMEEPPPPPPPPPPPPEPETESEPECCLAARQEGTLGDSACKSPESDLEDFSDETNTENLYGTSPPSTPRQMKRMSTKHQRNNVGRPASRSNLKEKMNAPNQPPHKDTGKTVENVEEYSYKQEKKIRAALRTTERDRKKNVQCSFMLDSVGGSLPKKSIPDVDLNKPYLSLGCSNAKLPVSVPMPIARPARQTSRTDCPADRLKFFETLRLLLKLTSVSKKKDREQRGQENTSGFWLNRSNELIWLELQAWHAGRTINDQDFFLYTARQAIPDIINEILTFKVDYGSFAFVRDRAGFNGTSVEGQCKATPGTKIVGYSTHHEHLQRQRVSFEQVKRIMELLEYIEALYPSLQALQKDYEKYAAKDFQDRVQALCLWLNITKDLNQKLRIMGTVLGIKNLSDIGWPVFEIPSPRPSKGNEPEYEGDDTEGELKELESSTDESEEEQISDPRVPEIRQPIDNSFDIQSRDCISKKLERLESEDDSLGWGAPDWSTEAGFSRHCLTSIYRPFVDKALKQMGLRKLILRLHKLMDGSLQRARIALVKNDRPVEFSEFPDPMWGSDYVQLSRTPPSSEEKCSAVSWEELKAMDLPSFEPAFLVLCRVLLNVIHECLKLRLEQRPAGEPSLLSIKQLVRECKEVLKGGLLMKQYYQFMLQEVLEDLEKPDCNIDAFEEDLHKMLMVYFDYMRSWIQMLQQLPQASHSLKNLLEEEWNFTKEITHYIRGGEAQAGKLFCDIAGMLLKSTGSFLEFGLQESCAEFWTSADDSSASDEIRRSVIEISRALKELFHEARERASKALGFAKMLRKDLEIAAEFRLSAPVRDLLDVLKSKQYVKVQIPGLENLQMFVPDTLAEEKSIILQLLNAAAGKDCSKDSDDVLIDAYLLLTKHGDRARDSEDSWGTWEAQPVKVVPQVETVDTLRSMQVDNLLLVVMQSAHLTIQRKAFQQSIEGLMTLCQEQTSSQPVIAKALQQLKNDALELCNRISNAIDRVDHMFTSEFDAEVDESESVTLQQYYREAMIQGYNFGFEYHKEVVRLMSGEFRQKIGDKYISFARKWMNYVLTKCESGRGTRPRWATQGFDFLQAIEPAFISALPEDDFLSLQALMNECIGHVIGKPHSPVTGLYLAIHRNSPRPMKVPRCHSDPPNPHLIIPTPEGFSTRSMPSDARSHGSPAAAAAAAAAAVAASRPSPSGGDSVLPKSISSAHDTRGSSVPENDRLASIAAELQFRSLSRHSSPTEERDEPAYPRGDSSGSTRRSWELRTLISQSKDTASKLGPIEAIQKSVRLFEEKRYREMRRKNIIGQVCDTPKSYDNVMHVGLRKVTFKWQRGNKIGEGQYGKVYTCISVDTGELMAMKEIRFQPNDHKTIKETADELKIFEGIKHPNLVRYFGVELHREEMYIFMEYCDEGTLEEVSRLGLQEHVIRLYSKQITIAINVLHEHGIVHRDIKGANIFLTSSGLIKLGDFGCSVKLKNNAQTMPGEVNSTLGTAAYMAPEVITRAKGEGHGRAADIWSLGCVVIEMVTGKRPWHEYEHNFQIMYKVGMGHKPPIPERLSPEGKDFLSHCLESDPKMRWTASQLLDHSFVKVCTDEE

[13] = target: TSSK1B (human) (UniProt Q9BXA7)
[14] = target: GRK4 (human) (UniProt P32298)
[15] = target: MAP2K3 (human) (UniProt P46734)
[16] = target: EPHB1 (human) (UniProt P54762)
[17] = target: MUSK (human) (UniProt O15146)
[18] = target: DYRK1B (human) (UniProt Q9Y463)
[19] = target: HIPK4 (human) (UniProt Q8NE63)
[20] = target: TNIK (human) (UniProt Q9UKE5)
TNIK (human), sequence (Q9UKE5 whole entry, looked up): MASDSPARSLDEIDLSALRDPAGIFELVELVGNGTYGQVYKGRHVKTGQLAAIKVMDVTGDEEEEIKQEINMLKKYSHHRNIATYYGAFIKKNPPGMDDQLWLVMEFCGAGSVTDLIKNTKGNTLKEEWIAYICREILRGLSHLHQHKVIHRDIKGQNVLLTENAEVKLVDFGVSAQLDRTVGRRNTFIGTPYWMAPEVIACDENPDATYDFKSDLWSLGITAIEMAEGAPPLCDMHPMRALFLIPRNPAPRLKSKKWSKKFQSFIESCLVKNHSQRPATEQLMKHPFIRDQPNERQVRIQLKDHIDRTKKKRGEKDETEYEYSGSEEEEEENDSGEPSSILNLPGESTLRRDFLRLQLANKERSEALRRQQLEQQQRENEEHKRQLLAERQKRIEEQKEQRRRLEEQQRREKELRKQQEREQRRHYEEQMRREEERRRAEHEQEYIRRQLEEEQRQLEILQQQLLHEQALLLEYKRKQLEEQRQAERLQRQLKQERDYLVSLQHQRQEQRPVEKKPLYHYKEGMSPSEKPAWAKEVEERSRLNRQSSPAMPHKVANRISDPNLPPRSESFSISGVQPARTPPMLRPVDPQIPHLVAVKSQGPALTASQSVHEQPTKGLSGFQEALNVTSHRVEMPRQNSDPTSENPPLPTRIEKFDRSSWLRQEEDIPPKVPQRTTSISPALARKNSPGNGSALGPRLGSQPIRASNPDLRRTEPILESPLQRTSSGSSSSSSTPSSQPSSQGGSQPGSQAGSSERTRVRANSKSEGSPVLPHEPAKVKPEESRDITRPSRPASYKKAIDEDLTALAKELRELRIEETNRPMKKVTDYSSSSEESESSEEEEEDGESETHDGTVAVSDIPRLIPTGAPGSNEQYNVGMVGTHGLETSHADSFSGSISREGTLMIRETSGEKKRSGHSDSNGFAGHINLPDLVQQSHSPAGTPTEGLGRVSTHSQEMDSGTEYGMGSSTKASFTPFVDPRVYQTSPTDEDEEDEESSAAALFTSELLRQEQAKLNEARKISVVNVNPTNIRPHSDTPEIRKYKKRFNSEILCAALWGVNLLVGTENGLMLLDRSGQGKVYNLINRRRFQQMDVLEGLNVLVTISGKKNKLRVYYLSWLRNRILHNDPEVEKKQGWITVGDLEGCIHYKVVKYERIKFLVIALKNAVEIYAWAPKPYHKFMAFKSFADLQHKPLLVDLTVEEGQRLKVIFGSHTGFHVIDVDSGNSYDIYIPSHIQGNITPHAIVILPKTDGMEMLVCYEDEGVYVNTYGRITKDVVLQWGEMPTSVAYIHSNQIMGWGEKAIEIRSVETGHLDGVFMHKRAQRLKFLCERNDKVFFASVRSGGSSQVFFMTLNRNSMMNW

[21] = target: MST4 (human) (UniProt Q9P289)
[22] = target: MAPKAPK2 (human) (UniProt P49137)
[23] = tested on: MET (human), P08581 [Y1235D]
[24] = target: DAPK1 (human) (UniProt P53355)
[25] = target: MATK (human) (UniProt P42679)
[26] = target: DAPK3 (human) (UniProt O43293)
[27] = target: SRPK1 (human) (UniProt Q96SB4)
[28] = target: FES (human) (UniProt P07332)
[29] = target: DCLK2 (human) (UniProt Q8N568)
[30] = target: STK39 (human) (UniProt Q9UEW8)
[31] = target: JAK3 JH1 catalytic (human) (UniProt P52333)
JAK3 JH1 catalytic (human), sequence (P52333 whole entry, looked up): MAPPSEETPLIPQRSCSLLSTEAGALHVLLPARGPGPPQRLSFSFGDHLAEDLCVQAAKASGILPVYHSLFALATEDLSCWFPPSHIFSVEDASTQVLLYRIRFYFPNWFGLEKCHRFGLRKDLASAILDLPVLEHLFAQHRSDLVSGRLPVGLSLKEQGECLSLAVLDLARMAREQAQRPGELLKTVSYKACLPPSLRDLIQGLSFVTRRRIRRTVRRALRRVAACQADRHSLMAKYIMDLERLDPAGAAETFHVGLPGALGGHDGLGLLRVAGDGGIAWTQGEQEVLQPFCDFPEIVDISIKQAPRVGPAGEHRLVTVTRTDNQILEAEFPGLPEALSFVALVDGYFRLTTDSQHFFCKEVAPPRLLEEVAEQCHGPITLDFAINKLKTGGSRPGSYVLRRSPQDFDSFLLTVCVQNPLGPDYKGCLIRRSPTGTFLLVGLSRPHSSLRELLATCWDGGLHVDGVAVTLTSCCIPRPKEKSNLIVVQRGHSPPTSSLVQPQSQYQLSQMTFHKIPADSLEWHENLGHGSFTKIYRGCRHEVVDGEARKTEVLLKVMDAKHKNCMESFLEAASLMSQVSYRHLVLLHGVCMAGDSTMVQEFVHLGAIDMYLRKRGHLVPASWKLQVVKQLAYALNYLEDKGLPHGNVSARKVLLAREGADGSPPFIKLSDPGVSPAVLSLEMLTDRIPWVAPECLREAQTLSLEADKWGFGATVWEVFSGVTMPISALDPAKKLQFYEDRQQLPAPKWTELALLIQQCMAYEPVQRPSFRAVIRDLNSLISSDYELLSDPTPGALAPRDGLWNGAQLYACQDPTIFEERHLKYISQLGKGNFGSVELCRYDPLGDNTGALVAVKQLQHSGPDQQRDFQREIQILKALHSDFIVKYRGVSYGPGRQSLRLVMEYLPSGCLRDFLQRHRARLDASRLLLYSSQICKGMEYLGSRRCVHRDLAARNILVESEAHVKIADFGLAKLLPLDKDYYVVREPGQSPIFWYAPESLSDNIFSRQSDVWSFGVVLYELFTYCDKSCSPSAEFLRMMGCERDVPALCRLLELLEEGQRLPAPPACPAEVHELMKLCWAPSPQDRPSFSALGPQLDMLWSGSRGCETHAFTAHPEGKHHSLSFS

[32] = target: STK24 (human) (UniProt Q9Y6E0)
[33] = target: YSK4 (human) (UniProt Q56UN5)
[34] = target: DMPK (human) (UniProt Q09013)
[35] = target: PI4KB (human) (UniProt Q9UBF8)
[36] = target: EPHB2 (human) (UniProt P29323)
[37] = target: LATS1 (human) (UniProt O95835)
[38] = tested on: EIF2AK4 KD2 (human), Q9P2K8 [S808G]
[39] = target: MAPK3 (human) (UniProt P27361)
[40] = target: CDK14 (human) (UniProt O94921)
[41] = target: SIK1 (human) (UniProt P57059)
[42] = tested on: RET (human), P07949 [M918T]

Q: For `Cn1cc(C2=C(c3ccc(Cl)cc3Cl)C(=O)NC2=O)c2ccccc21`, which kinase still bound, per cent of control [1] is on record?
A: 89%

Q: And the kinase still bound, per cent of control [2]?
A: 100%

Q: And the kinase still bound, per cent of control [3]?
A: 90%

Q: And the kinase still bound, per cent of control [4]?
A: 100%

Q: What about the kinase still bound, per cent of control [5] of the same molecule?
A: 43%

Q: And the kinase still bound, per cent of control [6]?
A: 96%

Q: And the kinase still bound, per cent of control [7]?
A: 100%

Q: What about the kinase still bound, per cent of control [8] of the same molecule?
A: 100%

Q: What about the kinase still bound, per cent of control [9] of the same molecule?
A: 100%

Q: And the kinase still bound, per cent of control [10]?
A: 62%

Q: And the kinase still bound, per cent of control [11]?
A: 100%

Q: And the kinase still bound, per cent of control [12]?
A: 98%

Q: And the kinase still bound, per cent of control [13]?
A: 100%

Q: What about the kinase still bound, per cent of control [14] of the same molecule?
A: 100%

Q: What about the kinase still bound, per cent of control [15] of the same molecule?
A: 86%

Q: What about the kinase still bound, per cent of control [16] of the same molecule?
A: 91%

Q: What about the kinase still bound, per cent of control [17] of the same molecule?
A: 100%

Q: And the kinase still bound, per cent of control [18]?
A: 2.2%

Q: And the kinase still bound, per cent of control [19]?
A: 14%

Q: And the kinase still bound, per cent of control [20]?
A: 68%

Q: And the kinase still bound, per cent of control [21]?
A: 100%

Q: What about the kinase still bound, per cent of control [22] of the same molecule?
A: 100%

Q: And the kinase still bound, per cent of control [23]?
A: 85%

Q: And the kinase still bound, per cent of control [24]?
A: 79%

Q: And the kinase still bound, per cent of control [25]?
A: 75%

Q: What about the kinase still bound, per cent of control [26] of the same molecule?
A: 69%

Q: And the kinase still bound, per cent of control [27]?
A: 89%

Q: And the kinase still bound, per cent of control [28]?
A: 100%

Q: And the kinase still bound, per cent of control [29]?
A: 100%

Q: And the kinase still bound, per cent of control [30]?
A: 100%

Q: And the kinase still bound, per cent of control [31]?
A: 98%

Q: And the kinase still bound, per cent of control [32]?
A: 69%

Q: What about the kinase still bound, per cent of control [33] of the same molecule?
A: 12%

Q: What about the kinase still bound, per cent of control [34] of the same molecule?
A: 98%

Q: What about the kinase still bound, per cent of control [35] of the same molecule?
A: 94%

Q: And the kinase still bound, per cent of control [36]?
A: 100%

Q: And the kinase still bound, per cent of control [37]?
A: 100%

Q: What about the kinase still bound, per cent of control [38] of the same molecule?
A: 100%

Q: What about the kinase still bound, per cent of control [39] of the same molecule?
A: 99%

Q: What about the kinase still bound, per cent of control [40] of the same molecule?
A: 29%

Q: And the kinase still bound, per cent of control [41]?
A: 90%

Q: What about the kinase still bound, per cent of control [42] of the same molecule?
A: 100%
